Among the data in article PMC5618621, “Non-Clinical Studies for Evaluation of 8-C-Rhamnosyl Apigenin Purified from Peperomia obtusifolia against Acute Edema” (International Journal of Molecular Sciences, 2017) are IC50 values, retold here.

For the test, the target named is T1, cytosolic phospholipase A2 (cPLA2) (Homo sapiens, UniProt P47712).
T1 construct: gene PLA2G4A
T1 sequence (P47712 1-749): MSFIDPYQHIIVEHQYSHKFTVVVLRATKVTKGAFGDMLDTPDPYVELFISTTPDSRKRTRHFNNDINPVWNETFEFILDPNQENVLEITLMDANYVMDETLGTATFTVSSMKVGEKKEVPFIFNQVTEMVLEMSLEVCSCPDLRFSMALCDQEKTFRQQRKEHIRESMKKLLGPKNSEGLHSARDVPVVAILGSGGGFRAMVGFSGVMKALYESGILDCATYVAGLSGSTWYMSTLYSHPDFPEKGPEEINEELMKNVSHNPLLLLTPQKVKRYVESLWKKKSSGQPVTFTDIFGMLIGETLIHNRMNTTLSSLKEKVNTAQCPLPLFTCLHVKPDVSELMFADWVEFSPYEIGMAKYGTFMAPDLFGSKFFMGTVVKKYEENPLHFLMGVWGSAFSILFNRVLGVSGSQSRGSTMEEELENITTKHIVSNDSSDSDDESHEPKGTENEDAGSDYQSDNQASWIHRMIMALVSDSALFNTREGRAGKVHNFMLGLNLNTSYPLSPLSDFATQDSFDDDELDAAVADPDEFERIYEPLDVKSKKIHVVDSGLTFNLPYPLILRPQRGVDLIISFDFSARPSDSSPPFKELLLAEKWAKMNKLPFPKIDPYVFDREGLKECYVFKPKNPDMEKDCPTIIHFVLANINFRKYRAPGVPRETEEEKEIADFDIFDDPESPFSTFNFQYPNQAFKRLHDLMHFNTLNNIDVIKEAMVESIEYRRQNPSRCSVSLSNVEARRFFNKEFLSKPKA
The test can be described thus: recombinant cPLA2 enzymatic assay (Cayman cPLA2 assay kit). Type of test: biochemical.

Broadly, the IC50 is the concentration at which inhibition is half-maximal. Take `C[C@@H]1OC(c2c(O)cc(O)c3c(=O)cc(-c4ccc(O)cc4)oc23)[C@H](O)[C@H](O)[C@H]1O` (stereo partly shown) [8CR, 8-C-rhamnosyl apigenin]: the concentration for half-maximal inhibition (IC50) was found to be 134 µM.
